Where a SMILES comes first, the peptide text is derived from it. [ ]: non-standard residue; d: D form. The star is where a group is joined. Dolaproine = CO[C@@H]([C@@H]1CCCN1)[C@@H](C)C(=O)O; Dil = CC[C@H](C)[C@H](NC)[C@@H](CC(=O)O)OC; X1 = C[C@@H](N*)[C@@H](O)c1ccccc1; NMeV = CN[C@H](C(=O)O)C(C)C
Assay: Plasma pharmacokinetics of total antibody, total ADC-A and MMAE after ADC-A IV infusion
Assay type: in vivo, human
Set-up: Cmax/Dose / AUClast/Dose: unit not given beside the values
Settings: plasma analyte = label
Protocol: The following describes a protocol for evaluating the safety, pharmacokinetics, pharmacodynamics, immunogenicity, and efficacy of a ROR1 immunoconjugate (ADC-A) across a range of dose levels when administered to subjects with previously treated relapsed or refractory CLL/SLL, MCL, FL, MZL, DLBCL, RTL, BL, LPL/WM, T cell NHL, ALL, or AML. ADC-A is administered intravenously (IV) in repeated 3-week cycles with a drug infusion on Day 1 of each cycle (Q1/3W [Schedule 1]); in repeated 3-week cycles with drug infusions on Days 1 and 8 of each cycle (Q2/3W [Schedule 2]); or in repeated 4-week cycles with drug infusions on Days 1, 8, and 15 of each cycle (Q3/4W [Schedule 3]) over a planned infusion time of ˜30 minutes. Infusion times may be extended as necessary to accommodate individual subject tolerance of treatment.

[1] = after ADC-A 0.5 mg/kg IV Q1/3W (n = 1)
[2] = after ADC-A 1.0 mg/kg IV Q1/3W (n = 3)
[3] = after ADC-A 1.5 mg/kg IV Q1/3W (n = 3)
[4] = after ADC-A 2.25 mg/kg IV Q1/3W (n = 9)
[5] = after ADC-A 2.5 mg/kg IV Q1/3W (n = 4)

Structure (SMILES): CC[C@H](C)[C@@H]([C@@H](CC(=O)N1CCC[C@H]1[C@H](OC)[C@@H](C)C(=O)N[C@H](C)[C@@H](O)c1ccccc1)OC)N(C)C(=O)[C@@H](NC(=O)[C@@H](NC)C(C)C)C(C)C [MMAE, monomethyl auristatin E] (H-[NMeV]V[Dil][Dolaproine]-X1)
- Increases in Cmax and AUC with dose (ADC-A 0.5 to 2.5 mg/kg IV Q1/3W): somewhat less than dose-proportional
- AUClast [1]: 271 ng·h/mL
- AUClast/Dose [1]: 0.5420
- Cmax [1]: 1.15 ng/mL
- Cmax/Dose [1]: 0.0023
- Tmax [1]: 48 h
- AUClast [2]: 467 ng·h/mL
- AUClast/Dose [2]: 0.4673
- Cmax [2]: 2.66 ng/mL
- Cmax/Dose [2]: 0.0027
- Tmax [2]: 48 h
- AUClast [3]: 390 ng·h/mL
- AUClast/Dose [3]: 0.2600
- Cmax [3]: 1.66 ng/mL
- Cmax/Dose [3]: 0.0011
- Tmax [3]: 88.7 h
- AUClast [4]: 698 ng·h/mL
- AUClast/Dose [4]: 0.3102
- Cmax [4]: 4.43 ng/mL
- Cmax/Dose [4]: 0.0020
- Tmax [4]: 75.1 h
- AUClast [5]: 994.8 ng·h/mL
- AUClast/Dose [5]: 0.3979
- Cmax [5]: 6.7 ng/mL
- Cmax/Dose [5]: 0.0027
- Tmax [5]: 78.5 h

Reference: patent US20220152214A1, “CANCER TREATMENT WITH ROR1 ANTIBODY IMMUNOCONJUGATES” (VelosBio Inc., priority 2019, published 2022)
